Test results taken from patent US20040214192A1, “Methods of testing for allergic diseases and therapeutic agents for treating same” (Genox Research, Inc., priority 2002, published 2004).

T1: LBD of Nor1 (Homo sapiens, UniProt Q92570)
T1 construct: GST-LBD of Nor1 was expressed in E. coli and purified; GST (N); made in house; host or cells: E. coli
T1 sequence (Q92570 394-623 limits assumed): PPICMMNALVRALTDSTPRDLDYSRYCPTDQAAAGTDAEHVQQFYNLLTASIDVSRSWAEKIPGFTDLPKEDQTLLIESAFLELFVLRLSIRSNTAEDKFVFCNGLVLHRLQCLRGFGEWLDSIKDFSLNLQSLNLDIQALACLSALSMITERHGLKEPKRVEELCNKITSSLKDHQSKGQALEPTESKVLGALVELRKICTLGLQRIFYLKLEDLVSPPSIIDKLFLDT


Key:
[1] = biological target: T2, full-length NOR-1 (MINOR) (Homo sapiens, UniProt Q92570); assay: Mammalian Two Hybrid luciferase reporter, GAL4-full-length Nor1 construct; type: cell-based; details: for Full length Nor1-ligand activity RXR(+) / Full length Nor1-ligand activity RXR(−): NIH3T3 cells, luciferase; for Full length Nor1-ligand activity RXR(+): with RXRα; for function of enhancing the transcriptional activation ability of NOR-1 (MINOR): luciferase reporter system; for Full length Nor1-ligand activity RXR(−): without RXRα
T2 construct: Full length Nor1-; expressed in transfected cells; host or cells: NIH3T3
Protocol: A full-length gene or the ligand-binding site of NOR-1 is inserted into X, and the full-length gene of the retinoic acid X receptor (RXR)α is inserted into Y. These constructs are transfected into NIH3T3 cells, and the activity of induced luciferase is measured.
Mammalian Two Hybrid system was slightly modified. […] Actually, activity could not be detected for lipid-soluble metabolites existing on the metabolic map of mammals that might be natural ligands of NOR-1 in a screening system wherein only the ligand-binding domain was inserted. A plasmid wherein the full-length gene of NOR-1 (MINOR) had been inserted into pBIND and a luciferase reporter plasmid containing a GAL4 binding site were cotransfected into NIH3T3 cells, and the luciferase activity was measured automatically. By further addition of small molecule substances to this system enables screening of ligands by their transcription enhancing activity.
NOR-1 (MINOR) expression is induced under conditions where the leukocytes are hyperactive, such as in atopic dermatitis peripheral blood, and apoptosis of cells is very likely to occur as a result of this induced NOR-1 (MINOR) expression. Ligands existing in vivo may exist at sites where nuclear receptors are highly expressed. Therefore, small-molecule lipid-soluble mediators that are expected to be produced under such conditions were added to the assay system as candidate ligands to evaluate their luciferase activity enhancing function. […] Thus, the method established by the present inventors opened a way to discover native ligands and synthetic ligands of NOR-1 (MINOR) by high throughput.

LBD of Nor1 = biological target: T1, LBD of Nor1; assay: BIAcor S51 binding to GST-LBD of Nor1; details: BIAcor S51, comparison with GST
Excerpt: Glutathione S-transferase (GST) was used as a comparison control and 13,14-Dihydro-15-keto-PGA2 as a negative control.
In the present invention, as a means for detecting or measuring bound compound, a biosensor utilizing surface plasmon resonance phenomenon may be used. A biosensor (for example, BIAcore, Pharmacia) utilizing the surface plasmon resonance phenomenon allows real-time observation of the interaction between the NOR-1 protein and a test compound as a surface plasmon resonance signal. Therefore, using biosensors such as BIAcore, the binding between the NOR-1 protein and the test compound can be evaluated.

[2] = test system: Nor1 gene that completely lacked the LBD region (ΔLBD); assay: Mammalian Two Hybrid reporter with LBD deletion mutant of Nor1; type: cell-based, human; details: Nor1 lacking the LBD region
Excerpt: Therefore, prostaglandin A2 was implicated to function by actually acting on the LBD region of the nuclear receptor.

[3] = test system: Nor1 expression in peripheral blood eosinophils; assay: Nor1 expression induction in cultured peripheral blood eosinophils; type: cell-based, human; details: cultured peripheral blood eosinophils from healthy subjects
Excerpt: Values collected for beta-actin and GAPDH are shown.
A large amount of peripheral blood eosinophils were collected from healthy subjects, and cultured in suspension in a petri dish while suppressing their activation. […] The anti-CD30 antibody that has an agonistic activity against eosinophilic CD30 has recently been receiving attention, because it induces apoptosis of eosinophils via a specific intracellular pathway and may serve as a therapeutic agent for asthma.
Thus, the apoptosis by anti-CD30 antibody accompanied by induction of Nor1 may occur through an eosinophil-specific apoptosis pathway that is different from the conventional pathway.

T2 sequence (Q92570 whole entry, the tested form may be a part): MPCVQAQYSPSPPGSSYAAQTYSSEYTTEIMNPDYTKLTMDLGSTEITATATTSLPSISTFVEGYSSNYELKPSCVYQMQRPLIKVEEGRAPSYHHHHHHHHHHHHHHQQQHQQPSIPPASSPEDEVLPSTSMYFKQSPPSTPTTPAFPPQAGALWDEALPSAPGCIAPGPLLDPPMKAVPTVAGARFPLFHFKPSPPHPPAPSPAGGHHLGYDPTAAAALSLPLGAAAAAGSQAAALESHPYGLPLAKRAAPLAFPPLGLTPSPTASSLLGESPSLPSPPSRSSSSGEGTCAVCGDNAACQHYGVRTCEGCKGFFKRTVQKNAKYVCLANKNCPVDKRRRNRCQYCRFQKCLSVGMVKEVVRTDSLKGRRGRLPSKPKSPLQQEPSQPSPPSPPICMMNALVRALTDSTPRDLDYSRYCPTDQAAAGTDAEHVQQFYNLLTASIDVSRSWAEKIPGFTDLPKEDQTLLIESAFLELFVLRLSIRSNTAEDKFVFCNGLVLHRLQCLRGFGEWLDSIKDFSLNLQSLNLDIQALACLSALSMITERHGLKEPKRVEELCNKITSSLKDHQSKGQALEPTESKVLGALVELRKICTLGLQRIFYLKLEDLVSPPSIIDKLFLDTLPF

Row | Molecule | Full length Nor1-ligand activity RXR(+) [1] [µM] | Full length Nor1-ligand activity RXR(+) ([1]; symbol) | binding to the LBD of Nor1 (LBD of Nor1) | function of enhancing the transcriptional activation ability of NOR-1 (MINOR) [1] | Full length Nor1-ligand activity RXR(−) [1] [µM] | Full length Nor1-ligand activity RXR(−) ([1]; symbol) | transcriptional activity with LBD deletion mutant [2] | induction of Nor1 [3]
1 | CCCCC[C@H](O)/C=C/[C@H]1C=CC(=O)[C@H]1CCCCCCC(=O)O [8-iso Prostaglandin A1] | 10 | ∘ | – | – | – | – | – | –
2 | CCCCCC(=O)CC[C@H]1C=CC(=O)[C@@H]1C/C=C\CCCC(=O)O [13,14-dihydro-15-keto Prostaglandin A2] | – | – | did not bind to LBD | did not show any activity in the reporter system | – | – | – | –
3 | CCCCC[C@@](C)(O)/C=C/[C@H]1C=CC(=O)[C@@H]1C/C=C\CCCC(=O)O [15(R)-15-methyl Prostaglandin A2] | 10 | ∘ | – | enhancing the transcriptional activation ability of NOR-1 (MINOR) | 10 | ∘ | – | –
4 | CCCCC/C=C\C=C1\C(=O)C=C[C@@H]1C/C=C\CCCC(=O)O [15-dioxy-Δ^12,14-Prostaglandin J2] | 10 | ∘ | – | – | – | – | – | –
5 | CCCCC(C)(C)[C@H](O)/C=C/[C@H]1C=CC(=O)[C@@H]1C/C=C\CCCC(=O)O [16,16-dimethyl Prostaglandin A2] | 5 | ∘ | – | – | 5 | ∘ | – | –
6 | O=C(O)CCC/C=C\C[C@H]1C(=O)C=C[C@@H]1/C=C/[C@@H](O)COc1ccccc1 [16-phenoxy tetranor Prostaglandin A2] | 30 | ∘ | – | enhancing the transcriptional activation ability of NOR-1 (MINOR) | 30 | ∘ | – | –
7 | O=C(O)CCC/C=C\C[C@H]1C(=O)C=C[C@@H]1/C=C/[C@@H](O)CCc1ccccc1 [17-phenyl trinor Prostaglandin A2] | 10 | ∘ | – | enhancing the transcriptional activation ability of NOR-1 (MINOR) | 10 | ∘ | – | –
8 | CCCCC[C@H](O)/C=C/[C@H]1C=CC(=O)[C@@H]1CCCCCCC(=O)O [Prostaglandin A1] | 10 | ∘ | binding of PGA1 and PGA2 to the LBD of Nor1 was detected | enhancing the transcriptional activation ability of NOR-1 (MINOR) | 10 | ∘ | – | –
9 | CCCCC[C@H](O)/C=C/[C@H]1C=CC(=O)[C@@H]1C/C=C\CCCC(=O)O [Prostaglandin A2] | 10 | ∘ | binding of PGA1 and PGA2 to the LBD of Nor1 was detected | enhancing the transcriptional activation ability of NOR-1 (MINOR) | 10 | ∘ | remarkable suppression of the transcriptional activity | –
10 | IL-5: cytokine used to activate eosinophils | – | – | – | – | – | – | – | did not lead to the induction of Nor1
11 | IL-4: cytokine used to activate eosinophils (protein, UniProt P05112 25-153, looked up) Interleukin-4: HKCDITLQEIIKTLNSLTEQKTLCTELTVTDIFAASKNTTEKETFCRAATVLRQFYSHHEKDTRCLGATAQQFHRHKQLIRFLKRLDRNLWGLAGLNSCPVKEANQSTLENFLERLKTIMREKYSKCSS | – | – | – | – | – | – | – | did not lead to the induction of Nor1
